Experimental data reported in patent US10039753B2, “Imidazo[4,5-c]quinoline and imidazo[4,5-c][1,5]naphthyridine derivatives as LRRK2 inhibitors” (Pfizer Inc., priority 2015, dated 2018).
pIC50: −log10 of the molar value. Structures can show the parent of a compound that is named as a salt. Where two headings read alike, the source gives them in different places.

Key:
[1] = target: T1, GST-tagged truncated LRRK2 (Homo sapiens, UniProt Q5S007); assay: LRRK2 Assay, Format 2 (Lantha Screen), WT; assay type: biochemical
T1 construct: GST-tagged truncated LRRK2 from Invitrogen (Cat # PV4874); GST; purchased Invitrogen PV4874
Description: (§1) LRRK2 kinase activity was measured using Lantha Screen technology from Invitrogen. GST-tagged truncated LRRK2 from Invitrogen (Cat # PV4874) was incubated with a fluorescein-labeled peptide substrate based upon ezrin/radixin/moesin (ERM), also known as LRRKtide (Invitrogen cat # PR8976A), in the presence of a dose response of compound. Upon completion, the assay was stopped and detected with a terbium labeled anti-phospho-ERM antibody (Invitrogen, cat # PR8975A). […] Using Echo acoustic dispensing, 60 nL of compound was transferred to a low volume Corning 384-well assay plate. 3 μL of a working solution of substrate (200 nM LRRKtide, […]) prepared in assay buffer (50 mM HEPES, pH 7.5, 3 mM MgCl2, with 2 mM DTT and 0.01% Brij35 added fresh) was added to the 60 nL compound assay plate. The kinase reaction was started with […] of a working solution of LRRK2 enzyme at a concentration of […]. The final reaction concentrations were 100 nM LRRKtide, […], […] LRRK2 enzyme and a compound dose response with a top dose of 3 mM. The reaction was allowed to progress at room temperature for 30 minutes and then stopped with the addition of […] of detection buffer (20 mM Tris pH 7.6, 0.01% NP-40, 6 mM EDTA with 2 nM terbium labeled anti-phospho-ERM). After an incubation of 1 hour at room temperature, the plate was read on an Envision with an excitation wavelength of 340 nm and a reading emission at both 520 nm and 495 nm. The ratio of the 520 nm and 495 nm emission was used to analyze the data. Inhibition of mutant G2019S LRRK2 (Invitrogen cat # PV4881) was measured in the exact same method. All final concentrations of substrate ATP and enzyme were the same.

mutant G2019S LRRK2 = mutant G2019S LRRK2 (Homo sapiens, UniProt Q5S007, G2019S); assay: LRRK2 Assay, Format 2 (Lantha Screen), G2019S mutant; assay type: biochemical; parameters: purchased Invitrogen PV4881
Description: as §1

[2] = geometric mean of 2-4 determinations unless otherwise indicated (a: >=5; b: single determination)
[3] = geometric mean of 2-4 determinations unless otherwise indicated (a: >=5; b: single determination), read-out: LRRK2, Format 2 G2019S IC50
[4] = 100 nM LRRKtide, 1000 mM ATP (so in the source), 30 minutes at room temperature
[5] = 100 nM LRRKtide, 1000 mM ATP (so in the source), 30 minutes at room temperature, read-out: LRRK2, Format 2 G2019S mutant IC50

mutant G2019S LRRK2, sequence (Q5S007 970-2527 G2019S limits assumed): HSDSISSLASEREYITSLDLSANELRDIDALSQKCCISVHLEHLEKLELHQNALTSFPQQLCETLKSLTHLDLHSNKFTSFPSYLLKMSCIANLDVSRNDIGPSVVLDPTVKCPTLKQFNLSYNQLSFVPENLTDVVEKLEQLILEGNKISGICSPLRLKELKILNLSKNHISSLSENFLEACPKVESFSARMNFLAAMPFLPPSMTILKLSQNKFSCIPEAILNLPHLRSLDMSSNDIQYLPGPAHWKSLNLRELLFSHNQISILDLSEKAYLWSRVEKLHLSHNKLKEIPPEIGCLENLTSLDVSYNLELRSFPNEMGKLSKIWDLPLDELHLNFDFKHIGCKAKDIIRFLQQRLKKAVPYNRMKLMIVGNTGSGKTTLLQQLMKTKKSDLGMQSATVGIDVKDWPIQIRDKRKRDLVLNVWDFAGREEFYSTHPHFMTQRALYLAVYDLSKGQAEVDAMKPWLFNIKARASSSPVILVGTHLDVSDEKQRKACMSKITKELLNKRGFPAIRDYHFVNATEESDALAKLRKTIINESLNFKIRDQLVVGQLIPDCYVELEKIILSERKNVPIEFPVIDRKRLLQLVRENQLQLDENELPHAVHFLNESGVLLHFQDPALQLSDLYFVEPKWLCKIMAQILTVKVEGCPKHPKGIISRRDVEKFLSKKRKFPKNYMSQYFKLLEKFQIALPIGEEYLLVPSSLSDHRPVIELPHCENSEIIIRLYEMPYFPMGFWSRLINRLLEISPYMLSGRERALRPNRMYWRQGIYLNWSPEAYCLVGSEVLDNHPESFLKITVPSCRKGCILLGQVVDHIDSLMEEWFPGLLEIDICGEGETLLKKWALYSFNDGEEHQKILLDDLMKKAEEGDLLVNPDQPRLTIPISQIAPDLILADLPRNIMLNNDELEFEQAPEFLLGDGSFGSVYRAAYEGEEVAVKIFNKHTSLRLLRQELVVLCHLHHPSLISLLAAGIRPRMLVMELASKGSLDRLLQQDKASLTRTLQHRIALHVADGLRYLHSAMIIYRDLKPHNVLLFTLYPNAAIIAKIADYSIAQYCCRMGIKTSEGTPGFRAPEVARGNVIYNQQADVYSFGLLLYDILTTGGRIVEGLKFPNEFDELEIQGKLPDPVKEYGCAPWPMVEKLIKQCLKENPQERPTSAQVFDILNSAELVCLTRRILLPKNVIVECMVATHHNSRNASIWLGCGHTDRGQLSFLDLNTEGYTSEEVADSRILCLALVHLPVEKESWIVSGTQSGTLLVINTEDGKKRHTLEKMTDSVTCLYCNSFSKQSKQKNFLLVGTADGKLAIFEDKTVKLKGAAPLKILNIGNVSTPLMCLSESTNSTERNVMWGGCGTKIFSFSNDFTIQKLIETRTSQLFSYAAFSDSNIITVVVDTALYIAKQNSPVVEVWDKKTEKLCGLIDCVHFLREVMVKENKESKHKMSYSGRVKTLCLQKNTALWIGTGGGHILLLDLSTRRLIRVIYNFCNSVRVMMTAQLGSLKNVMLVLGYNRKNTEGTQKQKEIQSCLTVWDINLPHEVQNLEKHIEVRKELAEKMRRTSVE
T1 sequence (Q5S007 970-2527 limits assumed): as the sequence (Q5S007 970-2527 G2019S limits assumed) above, with S1050G counted along it

Structure (SMILES) | pIC50 [1, 2] | pIC50 (mutant G2019S LRRK2; [3]) | pIC50 [1, 4] | pIC50 (mutant G2019S LRRK2; [5])
Cc1cc(Cc2nc3cnc4ccc(C#N)cc4c3n2C2CCC(F)C2)on1 (single isomer, unassigned; ent-2) [enantiomer of Example 118, 1-(cis-3-fluorocyclopentyl]-2-[(3-methyl-1,2-oxazol-5-yl)methyl]-1H-imidazo[4,5-c]quinoline-8-carbonitrile, ENT-2] |  |  | 7.65 | 7.58
COCc1cn(Cc2nc3cnc4ccc(C#N)cc4c3n2C2CCC(F)C2)nn1 (single isomer, unassigned; ent-2) [enantiomer of Example 132, 1-(cis-3-fluorocyclopentyl)-2-{[4-(methoxymethyl)-1H-1,2,3-triazol-1-yl]methyl}-1H-imidazo[4,5-c]quinoline-8-carbonitrile, ENT-2] |  |  | 7.57 | 7.46
Cc1cc(Cc2nc3cnc4ccc(C#N)cc4c3n2[C@@H]2CCO[C@H](C)C2)on1 [Example 95, 2-[(3-Methyl-1,2-oxazol-5-yl)methyl]-1-[(2R,4R)-2-methyltetrahydro-2H-pyran-4-yl]-1H-imidazo[4,5-c]quinoline-8-carbonitrile] | 8.27 | 8.22 |  | 
C[C@@H]1C[C@H](n2c(Cn3cc(C(F)(F)F)nn3)nc3cnc4ccc(Cl)cc4c32)CCO1 [Example 99, 8-Chloro-1-[(2R,4R)-2-methyltetrahydro-2H-pyran-4-yl]-2-{[4-(trifluoromethyl)-1H-1,2,3-triazol-1-yl]methyl}-1H-imidazo[4,5-c]quinoline, formate salt] | 8.23 | 8.27 |  | 
Cc1cnn(Cc2nc3cnc4ccc(Cl)cc4c3n2[C@@H]2CCO[C@H](C)C2)n1 [Example 103, 8-Chloro-1-[(2R,4R)-2-methyltetrahydro-2H-pyran-4-yl]-2-[(4-methyl-2H-1,2,3-triazol-2-yl)methyl]-1H-imidazo[4,5-c]quinoline] | 7.95 | 7.97 |  | 
C[C@@H]1C[C@H](n2c(CC#N)nc3cnc4ccc(C#N)cc4c32)CCO1 [Example 117, 2-(cyanomethyl)-1-[(2R,4R)-2-methyltetrahydro-2H-pyran-4-yl]-1H-imidazo[4,5-c]quinoline-8-carbonitrile] | 7.77 | 7.71 |  | 
C[C@@H]1C[C@H](n2c(Cc3cc(C(F)(F)F)on3)nc3cnc4ccc(C#N)cc4c32)CCO1 [Example 119, 1-[(2R,4R)-2-methyltetrahydro-2H-pyran-4-yl]-2-{[5-(trifluoromethyl)-1,2-oxazol-3-yl]methyl}-1H-imidazo[4,5-c]quinoline-8-carbonitrile] | 8.12 | 8.09 |  | 
C[C@@H]1C[C@H](n2c(Cc3coc(C4CC4)n3)nc3cnc4ccc(C#N)cc4c32)CCO1 [Example 122, 2-[(2-cyclopropyl-1,3-oxazol-4-yl)methyl]-1-[(2R,4R)-2-methyltetrahydro-2H-pyran-4-yl]-1H-imidazo[4,5-c]quinoline-8-carbonitrile, formate salt] | 8.37 | 8.43 |  | 
C[C@@H]1C[C@H](n2c(Cn3cc(C4CC4)nn3)nc3cnc4ccc(C#N)cc4c32)CCO1 [Example 125, 2-[(4-cyclopropyl-1H-1,2,3-triazol-1-yl)methyl]-1-[(2R,4R)-2-methyltetrahydro-2H-pyran-4-yl]-1H-imidazo[4,5-c]quinoline-8-carbonitrile, formate salt] | 8.15 | 8.21 |  | 
C[C@@H]1C[C@H](n2c(Cc3cnco3)nc3cnc4ccc(Cl)cc4c32)CCO1 [Example 127, 8-chloro-1-[(2R,4R)-2-methyltetrahydro-2H-pyran-4-yl]-2-(1,3-oxazol-5-ylmethyl)-1H-imidazo[4,5-c]quinoline, formate salt] | 8.15 | 8.10 |  | 
C[C@@H]1C[C@H](n2c(Cn3cnnn3)nc3cnc4ccc(Cl)cc4c32)CCO1 [Example 129, 8-chloro-1-[(2R,4R)-2-methyltetrahydro-2H-pyran-4-yl]-2-(1H-tetrazol-1-ylmethyl)-1H-imidazo[4,5-c]quinoline, formate salt] | 8.44 | 8.38 |  | 
C[C@@H]1C[C@H](n2c(Cn3cccn3)nc3cnc4ccc(Cl)cc4c32)CCO1 [Example 130, 8-chloro-1-[(2R,4R)-2-methyltetrahydro-2H-pyran-4-yl]-2-(1H-pyrazol-1-ylmethyl)-1H-imidazo[4,5-c]quinoline, formate salt] | 8.46 | 8.42 |  | 

Further compounds by rising pIC50 [1, 2], results first:

pIC50 [1, 2] | pIC50 (mutant G2019S LRRK2; [3]) | pIC50 [1, 4] | pIC50 (mutant G2019S LRRK2; [5]) | Structure (SMILES)
7.67 | 7.52 |  |  | Cc1cc(Cc2nc3cnc4ccc(C#N)cc4c3n2C2CCCCC2(F)F)no1 (single isomer, unassigned; ent-2) [Example C94, 1-(2,2-difluorocyclohexyl)-2-[(5-methyl-1,2-oxazol-3-yl)methyl]-1H-imidazo[4,5-c]quinoline-8-carbonitrile, ENT-2]
7.73 | 7.69 |  |  | Cc1cnc(Cc2nc3cnc4ccc(C#N)cc4c3n2C2CCC(F)C2)cn1 (single isomer, unassigned; ent-2) [Example C89, 1-(cis-3-fluorocyclopentyl)-2-[(5-methylpyrazin-2-yl)methyl]-1H-imidazo[4,5-c]quinoline-8-carbonitrile, ENT-2]
8.03 | 8.05 |  |  | Cc1nc(Cc2nc3cnc4ccc(C#N)cc4c3n2[C@@H]2CCO[C@H](C)C2)no1 [Example 123, 2-[(5-methyl-1,2,4-oxadiazol-3-yl)methyl]-1-[(2R,4R)-2-methyltetrahydro-2H-pyran-4-yl]-1H-imidazo[4,5-c]quinoline-8-carbonitrile]
8.08 | 8.09 |  |  | CC(C)c1cn(Cc2nc3cnc4ccc(C#N)cc4c3n2[C@@H]2CCO[C@H](C)C2)nn1 [Example 126, 1-[(2R,4R)-2-methyltetrahydro-2H-pyran-4-yl]-2-{[4-(propan-2-yl)-1H-1,2,3-triazol-1-yl]methyl}-1H-imidazo[4,5-c]quinoline-8-carbonitrile, formate salt]
8.12 | 8.21 |  |  | C[C@@H]1C[C@H](n2c(Cc3cnccn3)nc3cnc4ccc(C#N)cc4c32)CCO1 [Example 98, 1-[(2R,4R)-2-Methyltetrahydro-2H-pyran-4-yl]-2-(pyrazin-2-ylmethyl)-1H-imidazo[4,5-c]quinoline-8-carbonitrile, formate salt]
8.14 | 8.16 |  |  | C[C@@H]1C[C@H](n2c(Cc3nnnn3C)nc3cnc4ccc(Cl)cc4c32)CCO1 [Example 128, 8-chloro-1-[(2R,4R)-2-methyltetrahydro-2H-pyran-4-yl]-2-[(1-methyl-1H-tetrazol-5-yl)methyl]-1H-imidazo[4,5-c]quinoline, formate salt]
8.20 | 8.33 |  |  | COc1ccc(Cc2nc3cnc4ccc(C#N)cc4c3n2[C@@H]2CCO[C@H](C)C2)nc1 [Example 96, 2-[(5-Methoxypyridin-2-yl)methyl]-1-[(2R,4R)-2-methyltetrahydro-2H-pyran-4-yl]-1H-imidazo[4,5-c]quinoline-8-carbonitrile]
8.21 | 8.27 |  |  | C[C@@H]1C[C@H](n2c(Cn3cnnn3)nc3cnc4ccc(C#N)cc4c32)CCO1 [Example 124, 1-[(2R,4R)-2-methyltetrahydro-2H-pyran-4-yl]-2-(1H-tetrazol-1-ylmethyl)-1H-imidazo[4,5-c]quinoline-8-carbonitrile, formate salt]
8.21 | 8.25 |  |  | C[C@@H]1C[C@H](n2c(Cn3cccn3)nc3cnc4ccc(C#N)cc4c32)CCO1 [Example 121, 1-[(2R,4R)-2-methyltetrahydro-2H-pyran-4-yl]-2-(1H-pyrazol-1-ylmethyl)-1H-imidazo[4,5-c]quinoline-8-carbonitrile, formate salt]
8.24 | 8.29 |  |  | C[C@@H]1C[C@H](n2c(Cn3cncn3)nc3cnc4ccc(C#N)cc4c32)CCO1 [Example 120, 1-[(2R,4R)-2-methyltetrahydro-2H-pyran-4-yl]-2-(1H-1,2,4-triazol-1-ylmethyl)-1H-imidazo[4,5-c]quinoline-8-carbonitrile, formate salt]
8.32 | 8.30 |  |  | Cc1ccc(Cc2nc3cnc4ccc(Cl)cc4c3n2[C@@H]2CCO[C@H](C)C2)nc1 [Example 100, 8-Chloro-2-[(5-methylpyridin-2-yl)methyl]-1-[(2R,4R)-2-methyltetrahydro-2H-pyran-4-yl]-1H-imidazo[4,5-c]quinoline]
